Measurements published in ChEMBL document CHEMBL1132519, “Synthesis and sar of 2- and 3-substituted 7-azaindoles as potential dopamine D4 ligands” (Bioorg Med Chem Lett, 1999).

What was measured:
D(3) dopamine receptor = D(3) dopamine receptor (Homo sapiens, UniProt P35462)
Description: Ability to displace [3H]-spiperone from cloned human dopamine D3 receptor stably expressed in CHO cells

D(2) dopamine receptor = D(2) dopamine receptor (Homo sapiens, UniProt P14416)
Description: Ability to displace [3H]spiperone from cloned human dopamine D2 receptor stably expressed in CHO cells

D(4) dopamine receptor = target: T1, D(4) dopamine receptor (Homo sapiens, UniProt P21917)
T1 sequence (P21917 whole entry): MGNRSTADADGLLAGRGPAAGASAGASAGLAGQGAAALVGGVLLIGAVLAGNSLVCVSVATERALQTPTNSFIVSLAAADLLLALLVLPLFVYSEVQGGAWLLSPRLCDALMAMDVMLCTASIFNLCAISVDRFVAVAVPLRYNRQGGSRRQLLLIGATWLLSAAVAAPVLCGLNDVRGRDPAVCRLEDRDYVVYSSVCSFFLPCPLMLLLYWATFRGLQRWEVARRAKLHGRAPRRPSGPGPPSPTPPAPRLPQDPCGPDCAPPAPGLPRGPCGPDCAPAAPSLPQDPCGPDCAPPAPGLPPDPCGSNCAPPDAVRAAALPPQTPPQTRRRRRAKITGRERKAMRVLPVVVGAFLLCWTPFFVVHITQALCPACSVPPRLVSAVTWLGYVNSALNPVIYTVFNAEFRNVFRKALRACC
Description: Ability to displace [3H]spiperone from cloned human dopamine D4 receptor stably expressed in HEK293 cells

D(2) dopamine receptor, sequence (P14416 whole entry): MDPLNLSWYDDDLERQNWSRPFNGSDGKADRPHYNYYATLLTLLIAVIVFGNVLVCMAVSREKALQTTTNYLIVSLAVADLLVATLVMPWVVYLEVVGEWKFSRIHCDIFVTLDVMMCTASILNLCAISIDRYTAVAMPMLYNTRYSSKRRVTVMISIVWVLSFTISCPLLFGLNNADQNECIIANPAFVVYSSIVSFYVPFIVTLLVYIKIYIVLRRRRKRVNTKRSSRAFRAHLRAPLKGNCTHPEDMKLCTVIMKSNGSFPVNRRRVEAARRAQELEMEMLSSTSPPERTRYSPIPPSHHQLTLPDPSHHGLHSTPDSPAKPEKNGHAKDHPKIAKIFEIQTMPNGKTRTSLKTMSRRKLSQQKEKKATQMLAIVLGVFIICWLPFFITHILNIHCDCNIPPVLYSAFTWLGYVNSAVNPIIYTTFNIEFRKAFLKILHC
D(3) dopamine receptor, sequence (P35462 whole entry): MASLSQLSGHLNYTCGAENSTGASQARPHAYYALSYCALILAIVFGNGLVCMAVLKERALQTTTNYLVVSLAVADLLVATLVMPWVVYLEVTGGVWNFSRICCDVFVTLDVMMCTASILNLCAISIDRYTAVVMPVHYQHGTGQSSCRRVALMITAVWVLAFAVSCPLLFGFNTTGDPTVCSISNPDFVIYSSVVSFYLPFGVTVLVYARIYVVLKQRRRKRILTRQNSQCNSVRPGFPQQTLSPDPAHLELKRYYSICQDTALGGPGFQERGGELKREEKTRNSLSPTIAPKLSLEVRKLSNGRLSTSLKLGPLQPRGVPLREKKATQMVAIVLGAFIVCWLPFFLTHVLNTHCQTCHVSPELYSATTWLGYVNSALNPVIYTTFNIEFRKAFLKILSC

| Compound | Ki (D(3) dopamine receptor) [µM] | Ki (D(2) dopamine receptor) [µM] | Ki (D(4) dopamine receptor) [µM] |
| --- | --- | --- | --- |
| Clc1ccc(N2CCN(CCc3cc4cccnc4[nH]3)CC2)cc1 | 0.05 | 0.8 | 0.0117 |
| C1=C(c2ccccc2)CCN(CCc2c[nH]c3ncccc23)C1 | 0.01 | 0.021 | 0.034 |
| c1ccc(CCC2CCN(Cc3cc4ccc[nH]c-4n3)CC2)cc1 | 0.25 | 0.2 | 0.002 |
| C1=C(/C=C/c2ccccc2)CCN(CCc2cc3ccc[nH]c-3n2)C1 | 0.025 | 1.3 | 0.03 |
| COc1ccc(N2CCN(CCc3c[nH]c4ncccc34)CC2)cc1 | 0.53 | 0.9 | 0.026 |

Next, values leading:

| Ki (D(3) dopamine receptor) [µM] | Ki (D(2) dopamine receptor) [µM] | Ki (D(4) dopamine receptor) [µM] | Compound |
| --- | --- | --- | --- |
| 3.9 | > 1.5 | – | COc1ccc(N2CCN(Cc3c[nH]c4ncccc34)CC2)cc1 |
| 1.3 | 1.1 | 0.0018 | c1ccc(CCC2CCN(Cc3c[nH]c4ncccc34)CC2)cc1 |
| 0.17 | 0.64 | 0.007 | c1ccc2c(c1)CCN(Cc1c[nH]c3ncccc13)C2 |
| 0.18 | 0.28 | 0.0065 | C1=C(/C=C/c2ccccc2)CCN(CCc2c[nH]c3ncccc23)C1 |
| 1.1 | 0.6 | 0.059 | c1c[nH]c2nc(CN3CCc4ccccc4C3)cc-2c1 |
